We go through 43 compounds from patent US10092529B2, “Necrosis inhibitors” (National Institute of Biological Sciences, Beijing, priority 2014, dated 2018).

What is called EC50 is the concentration giving half of the maximal effect. A word on the IC50: it is the concentration that inhibits the measured activity by half. As a reminder, the inhibition is the share of the control response that was lost under treatment.

Where two headings read alike, the source gives them in different places.

For one experiment, the system named is HT-29 cells. The experiment in a line: Necrosis assay: TNF-α/Smac mimetic/z-VAD induced necrosis, cell viability by CellTiter-Glo. The experiment is classed as cell-based. As to the method:
HT-29 cells were cultured in McCoy's 5A culture medium (Invitrogen). On day one, HT-29 cells were plated in 96-well assay plates at density of 2,500-3,500 cells per well. On day two, necrosis were induced by adding 20 ng/ml TNF-α (T), 100 nM Smac mimetic (S), and […] z-VAD (Z). At the same time, […] compound from a chemical library of ˜200,000 compounds was delivered into each well. After 24 hrs treatment, cell viability was determined by measuring ATP level using the CellTiter-Glo Luminescent Cell Viability Assay kit. A CellTiter-Glo Assay (Promega) was performed according to the manufacturer's instructions Luminescence was recorded with a PerkinElmer EnSpire Multimode Plate Reader. Survived cells were normalized to those cells treated with DMSO. Nec-1 was used as a positive control for screening necrosis inhibitors. Data are represented as mean±standard deviation of duplicates.
Dose-dependent inhibition of necrosis by compound #9 and the derivative compounds in HT-29 cells were determined by measuring ATP levels as described above.
A general note: In ATP-based viability assays light output follows the ATP content of the culture.

The target of experiment [1] is hRIP1 kinase (recombinant full-length RIPK1 protein with N-terminal GST-tag) (Homo sapiens (Human), UniProt Q13546). The experiment in a line: Kinase assay of RIPK1 (ADP-Glo). It is filed as biochemical. The following applies: for IC50: 161 nM RIPK1, 50 uM ATP, 20 uM MBP, 90 min. As to the method:
Materials: Recombinant full-length RIPK1 protein with N-terminal GST-tag (Cat#R07-34G) was purchased from SignalChem. The ADP-Glo™ kinase assay kit (Cat#V9102) was from Promega. MBP (cat# M2295) protein and all the other chemicals were from Sigma. The 384-well assay plates (Cat#3674, white, opaque) were purchased from Corning.
Kinase activity assay and data analysis: The RIPK1 kinase assay was performed in white 384-well plate. The assay buffer contained 25 mM HEPES (pH7.2), 20 mM MgCl2, 12.5 mM MnCl2, 5 mM EGTA, 2 mM EDTA, 12.5 mM β-glycerol phosphate and 2 mM DTT. RIPK1 was first incubated with compounds or DMSO control for […], then ATP/MBP substrate mixture was added to initiate the reaction. The final concentration of RIPK1 was 161 nM, while the final concentration of ATP was 50 uM, and MBP 20 uM. After 90 min reaction at room temperature, the ADP-Glo reagent and detection solution were added following the technical manual of ADP-Glo™ kinase assay kit (Promega). The luminescence was measured on PerkinElmer Enspire. The data was analyzed using Graphpad Prism (GraphPad Software; www.graphpad.com). The curves were fitted using a non-linear regression model with a sigmoidal dose response.

Setting [2] is: Homo sapiens, necrosis induced by TNF-α/Smac mimetic/z-VAD, 24 hrs, ATP level, read-out: Cell viability assay, EC50.
Setting [3] is: inhibition of necrosis, ATP levels, range given in nM, read-out: EC50 (necrosis activity).
Setting [4] is: Homo sapiens, inhibition of necrosis, ATP levels, range given in uM, read-out: EC50 (necrosis activity).
Where [5] appears, read: inhibition of necrosis, ATP levels, range given in uM, read-out: EC50 (necrosis activity).

Chain of hRIP1 kinase (recombinant full-length RIPK1 protein with N-terminal GST-tag) (Q13546 whole entry): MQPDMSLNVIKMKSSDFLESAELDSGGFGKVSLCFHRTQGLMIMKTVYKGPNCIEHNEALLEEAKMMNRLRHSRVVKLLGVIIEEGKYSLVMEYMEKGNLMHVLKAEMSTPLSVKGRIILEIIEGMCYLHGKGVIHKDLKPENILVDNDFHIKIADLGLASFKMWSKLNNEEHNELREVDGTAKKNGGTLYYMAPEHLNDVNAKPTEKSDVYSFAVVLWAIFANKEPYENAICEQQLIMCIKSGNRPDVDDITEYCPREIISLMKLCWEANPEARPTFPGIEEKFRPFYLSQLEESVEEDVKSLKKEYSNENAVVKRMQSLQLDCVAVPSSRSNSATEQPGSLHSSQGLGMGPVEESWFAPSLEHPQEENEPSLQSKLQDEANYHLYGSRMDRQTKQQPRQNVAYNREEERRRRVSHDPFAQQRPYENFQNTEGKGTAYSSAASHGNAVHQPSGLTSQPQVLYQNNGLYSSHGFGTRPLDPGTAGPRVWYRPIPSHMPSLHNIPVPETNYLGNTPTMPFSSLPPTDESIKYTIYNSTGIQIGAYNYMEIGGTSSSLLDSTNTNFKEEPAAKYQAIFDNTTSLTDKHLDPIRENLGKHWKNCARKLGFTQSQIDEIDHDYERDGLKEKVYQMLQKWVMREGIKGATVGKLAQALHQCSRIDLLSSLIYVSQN

Take `CCC(C)(C)C(=O)N1CCC1c1ccccc1` (centres unmarked) [Compound 2, 2,2-dimethyl-1-(2-phenylazetidin-1-yl)butan-1-one]: the EC50 in the experiment with HT-29 cells (setting [2]) is 29.6 nM; in the experiment on HT-29 cells (setting [3]), 1 to 1000 nM. Besides, in experiment [1], the IC50 is 0.0348 µM.

Take `CCC(C)(C)C(=O)N1CCCC1c1cc(F)cc(F)c1F` (centres unmarked) [Compound 10, 2,2-dimethyl-1-(2-(2,3,5-trifluorophenyl)pyrrolidin-1-yl)butan-1-one]: the values for the EC50 with HT-29 cells (setting [2]) and with HT-29 cells (setting [3]) were 9.88 nM and 1 to 1000 nM, respectively. Also, the IC50 in experiment [1] was 0.0225 µM. `CCC(C)(C)C(=O)N1C[C@@H](O)C[C@H]1c1ccccc1` [Compound 13, 1-((2S,4S)-4-hydroxy-2-phenylpyrrolidin-1-yl)-2,2-dimethylbutan-1-one]: the EC50 is 1000 to 10000 nM in the experiment on HT-29 cells (setting [4]) and 2620 nM with HT-29 cells (setting [2]). In addition, in experiment [1], the inhibition at 2 µM turned out to be 69%. With `CCC(C)(C)C(=O)N1C[C@H](O)C[C@H]1c1ccccc1` [Compound 15, 1-((2S,4R)-4-hydroxy-2-phenylpyrrolidin-1-yl)-2,2-dimethylbutan-1-one], the EC50 with HT-29 cells (setting [2]) was 396 nM; in the experiment with HT-29 cells (setting [3]) it was 1 to 1000 nM. Besides, the IC50 in experiment [1] was found to be 0.46 µM.

For `CCC(C)(C)C(=O)N1C(=O)C[C@H]1c1ccccc1` [Compound 24, (S)-1-(2,2-dimethylbutanoyl)-4-phenylazetidin-2-one], the figures for the EC50 with HT-29 cells (setting [2]) and with HT-29 cells (setting [3]) were 7 nM and 1 to 1000 nM, respectively. The IC50 in experiment [1] was 0.0198 µM. For `CCC(C)(C)C(=O)N1C(=O)CC1c1cccc(N=[N+]=[N-])c1` (centres unmarked) [Compound 25, 4-(3-azidophenyl)-1-(2,2-dimethylbutanoyl)azetidin-2-one], the values for the EC50 in the experiment with HT-29 cells (setting [2]) and with HT-29 cells (setting [3]) were 556 nM and 1 to 1000 nM, respectively. Further, in experiment [1], the IC50 was found to be 0.152 µM. In the case of `CCC(C)(C)C(=O)N1C(=O)N(C)C[C@H]1c1ccccc1` [Compound 31, (R)-3-(2,2-dimethylbutanoyl)-1-methyl-4-phenylimidazolidin-2-one], the EC50 in the experiment with HT-29 cells (setting [2]) is 609 nM; in the experiment with HT-29 cells (setting [3]) it was 1 to 1000 nM. The IC50 in experiment [1] was 1.06 µM. Take `C=CC(C)(C)C(=O)N1C(=O)C[C@H]1c1ccccc1` [Compound 38, (S)-1-(2,2-dimethylbut-3-enoyl)-4-phenylazetidin-2-one]: the 50% effective concentration (EC50) in the experiment on HT-29 cells (setting [2]) is 8.39 nM; with HT-29 cells (setting [3]), 1 to 1000 nM. The IC50 in experiment [1] was 0.0137 µM.

Turning to `CCC(C)(C)C(=O)N1CCC1c1ccco1` (centres unmarked) [Compound 61], the EC50 in the experiment on HT-29 cells (setting [5]) was in the range of 1000 to 1e+06 nM. Turning to `C=CC(C)(C)C(=O)N1CCC1c1cccs1` (centres unmarked) [Compound 62], the EC50 in the experiment with HT-29 cells (setting [5]) was in the range of 1000 to 1e+06 nM. Turning to `C=CC(C)(C)C(=O)N1CCC1c1ccc(C)s1` (centres unmarked) [Compound 63], the EC50 in the experiment on HT-29 cells (setting [5]) was in the range of 1000 to 1e+06 nM. The same measure, in the same setting: as for `C=CC(C)(C)C(=O)N1CCC1c1ccco1` (centres unmarked) [Compound 64], the figure is 1000 to 1e+06 nM. As for `CCC(C)(C)C(=O)N1CCC1c1ncc(C)s1` (centres unmarked) [Compound 65], in the experiment with HT-29 cells (setting [5]), the EC50 is 1000 to 1e+06 nM.

Take `C=CC(C)(C)C(=O)N1CCC1c1ncc(C)s1` (centres unmarked) [Compound 66]: in the experiment on HT-29 cells (setting [5]), the EC50 fell in the range of 1000 to 1e+06 nM. On the same count and under the same terms, to `CCC(C)(C)C(=O)N1CCC1c1ccccc1F` (centres unmarked) [Compound 67] belongs 1000 to 1e+06 nM; to `C=CC(C)(C)C(=O)N1CC[C@H]1c1ccccc1` [Compound 68], 1000 to 1e+06 nM. Still for that read-out and setting: as for `C=CC(C)(C)C(=O)N1CCCC1c1ccccc1` (centres unmarked) [Compound 69], the figure is 1000 to 1e+06 nM; as for `CCC(C)(C)S(=O)(=O)N1CC[C@H]1c1ccccc1` [Compound 70], 1000 to 1e+06 nM. On the same count and under the same terms, to `CCC(C)(C)C(=O)N1CCC1c1cccc(F)c1` (centres unmarked) [Compound 71] belongs 1000 to 1e+06 nM. As for `CCC(C)(C)C(=O)N1CC=C[C@H]1c1ccccc1` [Compound 72], the concentration for a half-maximal effect (EC50) in the experiment on HT-29 cells (setting [5]) fell in the range of 1000 to 1e+06 nM. Consider `C=CC(C)(C)C(=O)N1CC=C[C@H]1c1ccccc1` [Compound 73], for which, in the experiment with HT-29 cells (setting [5]), the EC50 was 1000 to 1e+06 nM. On the same count and under the same terms, to `CCC(C)(C)C(=O)N1CCC=C[C@H]1c1ccccc1` [Compound 74] belongs 1000 to 1e+06 nM; to `C=CC(C)(C)C(=O)N1CCC=C[C@H]1c1ccccc1` [Compound 75], 1000 to 1e+06 nM; to `CCC(C)(C)C(=O)N1OCCC1c1ccccc1` (centres unmarked) [Compound 76], 1000 to 1e+06 nM. Same read-out and setting: as for `C=CC(C)(C)C(=O)N1OCCC1c1ccccc1` (centres unmarked) [Compound 77], the figure is 1000 to 1e+06 nM. With `CCC(C)(C)C(=O)n1cccc1-c1ccccc1` [Compound 78, 2,2-dimethyl-1-(2-phenyl-1H-pyrrol-1-yl)butan-1-one], the EC50 in the experiment on HT-29 cells (setting [4]) was in the range of 1000 to 100000 nM.

In the case of `CCC(C)(C)C(=O)N1CC[C@H](O)[C@H]1c1ccccc1` [Compound S1, 1-((2R,3S)-3-hydroxy-2-phenylpyrrolidin-1-yl)-2,2-dimethylbutan-1-one], the EC50 with HT-29 cells (setting [4]) was in the range of 1000 to 10000 nM. Turning to `CCC(C)(C)C(=O)N1CC[C@@H](O)[C@H]1c1ccccc1` [Compound S2, 1-((2R,3R)-3-hydroxy-2-phenylpyrrolidin-1-yl)-2,2-dimethylbutan-1-one], the EC50 in the experiment on HT-29 cells (setting [4]) lay within 1000 to 100000 nM. With `CCC(C)(C)C(=O)N1CCC(=O)[C@H]1c1ccccc1` [Compound S3, (R)-1-(2,2-dimethylbutanoyl)-2-phenylpyrrolidin-3-one], the EC50 in the experiment with HT-29 cells (setting [4]) lay within 1000 to 10000 nM. Same read-out and setting: to `CCC(C)(C)C(=O)N1C[C@@H](O)[C@H]1c1ccccc1` [Compound S4, 1-((2R,3R)-3-hydroxy-2-phenylazetidin-1-yl)-2,2-dimethylbutan-1-one] belongs 1000 to 10000 nM; to `CCC(C)(C)C(=O)N1C[C@H](O)[C@H]1c1ccccc1` [Compound S5, 1-((2R,3S)-3-hydroxy-2-phenylazetidin-1-yl)-2,2-dimethylbutan-1-one], 1000 to 100000 nM; to `CCS(=O)(=O)N1CC[C@H]1c1ccccc1` [Compound S6, (S)-1-(ethylsulfonyl)-2-phenylazetidine], 1000 to 100000 nM. The same measure, in the same setting: to `CC(C)(C)[S+]([O-])N1CC[C@H]1c1ccccc1` (stereo partly drawn) [Compound S7, (2S)-1-(tert-butylsulfinyl)-2-phenylazetidine] belongs 1000 to 10000 nM. The same measure, in the same setting: to `CC(C)(C)S(=O)(=O)N1CC[C@H]1c1ccccc1` [Compound S8, (S)-1-(tert-butylsulfonyl)-2-phenylazetidine] belongs 1000 to 100000 nM. As for `CC(F)(F)C(C)(C)C(=O)N1CC[C@H]1c1ccccc1` [Compound S9], in the experiment on HT-29 cells (setting [3]), the EC50 fell in the range of 1 to 1000 nM.

As for `CC(F)(F)C(C)(C)C(=O)N1CCCC1c1ccccc1` (centres unmarked) [Compound S10, 3,3-difluoro-2,2-dimethyl-1-(2-phenylpyrrolidin-1-yl) butan-1-one], the EC50 in the experiment with HT-29 cells (setting [3]) lay in the range of 1 to 1000 nM. Still for that read-out and setting: to `CC(C)(C)C(=O)N1CCCC1c1ccccc1` (centres unmarked) [Compound S11, 2,2-dimethyl-1-(2-phenylpyrrolidin-1-yl)propan-1-one] belongs 1 to 1000 nM. In the case of `CC(C)(C)C(=O)N1CC[C@H]1c1ccccc1` [Compound S12, (S)-2,2-dimethyl-1-(2-phenylazetidin-1-yl)propan-1-one], the EC50 in the experiment with HT-29 cells (setting [3]) lay within 1 to 1000 nM.

As to `CC(F)(F)C(C)(C)C(=O)N1CCC=C[C@H]1C1CCCCC1` [Compound S13], the EC50 with HT-29 cells (setting [4]) fell in the range of 1000 to 100000 nM. For the compound `CC(F)(F)C(C)(C)C(=O)N1C=CC=CC1C1CCCCC1` (centres unmarked) [Compound S14], in the experiment with HT-29 cells (setting [4]), the EC50 lay in the range of 1000 to 100000 nM. `CC(F)(F)C(C)(C)C(=O)N1C=CC=CC1c1ccccc1` (centres unmarked) [Compound S15]: the EC50 in the experiment with HT-29 cells (setting [4]) was in the range of 1000 to 100000 nM. Regarding `CC(F)(F)C(C)(C)C(=O)N1CC=C[C@H]1c1ccccc1` [Compound S16], the EC50 with HT-29 cells (setting [4]) was 1000 to 100000 nM. The same measure, in the same setting: to `CC(F)(F)C(C)(C)C(=O)N1CCC=C[C@H]1c1ccccc1` [Compound S17] belongs 1000 to 100000 nM.
